According to US10322115B2, “Amelioration of neural deficits associated with diabetes” (Neuralstem, Inc., priority 2016, dated 2019):

Legend:
diabetic mice [1] = assay: Paw tactile response threshold by manual von Frey filament (tactile allodynia) in STZ Type I diabetes model; format: in vivo, Swiss Webster mice
Experimental: (§1) Adult female Swiss Webster mice (20-25 grams) were used in the study. They were maintained in a room at 65-82° F. and relative humidity of 30-70% illuminated with fluorescent lighting on a 12 hour light/dark cycle. The animals were maintained 2-3 per cage with free access to dry food and municipal water. Diabetes was induced following an overnight fast by injection of streptozotocin (STZ) (90 mg/kg ip in 0.9% sterile saline) on two consecutive days. Hyperglycemia was confirmed 4 days later in a sample of blood obtained by tail prick using a strip operated reflectance meter. Animals were observed daily and weighed weekly during the study period.
(§2) Test compounds were evaluated, with treatment begun immediately after onset of diabetes (Part A) or after 7-8 weeks of diabetes in Part B. Each group started with 10 animals per group to allow identification of differences in nerve conduction, paw thermal latency and intra-epidermal nerve fiber (IENF) density between control and diabetic mice, assuming the routinely observed 20-40% difference between groups and measurement coefficients of variation of 10-20%.
(§3) PART A (onset) • Control+vehicle • Diabetic+vehicle • Diabetic+insulin (by implanted pellet) • Diabetic+NSI-158 • Diabetic+NSI-189 • Diabetic+NSI-190
(§4) PART B (7-8 weeks) • Control+vehicle • Diabetic+vehicle • Diabetic+NSI-150 • Diabetic+NSI-182 • Diabetic+NSI-183 • Diabetic+NSI-189
(§5) Insulin was supplied by an implanted insulin pellet replaced monthly as needed (LinBit™, LinShin, Canada) and the test compounds were supplied by oral gavage. The following measurements were made 24 hours after delivery of test compound: • Body weight: Weekly from onset of diabetes; • Blood glucose: At onset of diabetes and monthly thereafter; • MNCV (large motor fiber function): Before onset of diabetes and monthly thereafter; • Paw tactile response threshold (large sensory fiber function) by manual von Frey filament: Monthly from onset of diabetes; • Paw thermal response latency (small sensory fiber): Monthly from onset of diabetes; • Corneal nerve density (small sensory fiber structure): Images were collected before onset of diabetes and monthly thereafter; • Barnes maze performance (learning and memory): After 10 weeks of diabetes and at study termination; and • Object recognition test (memory): After 10 weeks of diabetes and at study termination.
(§6) The various procedures set forth above are those described in the art as follows: • Jolivalt, C. G., et al., Exp. Neurol. (2010) 223:422-431; • Jolivalt, C. G., et al., Diabetes Obes. Metab. (2011) 13:990-1000; • Jolivalt, C. G., et al., Neuroscience (2012) 202:405-412; and • Chen, D. K., et al., J. Peripher. Nerv. Syst. (2013) 18:306-315.

diabetic mice [2] = assay: Paw thermal response latency (paw response to heat) in STZ Type I diabetes model; format: in vivo, Swiss Webster mice
Experimental: as §1, §2, §3, §4, §5, §6

diabetic mice [3] = assay: Corneal nerve density (small fiber pathology) in STZ Type I diabetes model; format: in vivo, Swiss Webster mice
Experimental: as §1, §2, §3, §4, §5, §6

diabetic mice [4] = assay: MNCV (large motor fiber function) in STZ Type I diabetes model; format: in vivo, Swiss Webster mice
Experimental: as §1, §2, §3, §4, §5, §6

diabetic mice [5] = assay: Nerve density in the sub-epidermal nerve plexus in STZ Type I diabetes model; format: in vivo, Swiss Webster mice
Experimental: as §1, §2, §3, §4, §5, §6

diabetic mice [6] = assay: Object recognition test (memory) in STZ Type I diabetes model; format: in vivo, Swiss Webster mice; conditions: Part A (treatment from onset), weeks 10 and 16
Experimental: as §1, §2, §3
PART B (7-8 weeks) • Control+vehicle • Diabetic+vehicle • Diabetic+NSI-150 • Diabetic+NSI-182 • Diabetic+NSI-183 • Diabetic+NSI-189 […]

diabetic mice [7] = assay: Barnes maze test (learning and memory) in STZ Type I diabetes model; format: in vivo, Swiss Webster mice; conditions: for Barnes maze long-term retention / Barnes maze other parameters (initial acquisition, reinforced learning, short-term retention): Part A (treatment from onset)
Experimental: as §1, §2, §3, §4, §5, §6

diabetic mice [8] = assay: Systemic indices of diabetes (body weight, blood glucose, HbA1c) in STZ Type I diabetes model; format: in vivo, Swiss Webster mice; conditions: Part A, treatment from the outset
Experimental: as §1, §2, §3, §4
Insulin was supplied by an implanted insulin pellet replaced monthly as needed (LinBit™, LinShin, Canada) and the test compounds were supplied by oral gavage. […]

diabetic mice [9] = assay: IENF density in isolated paw skin tissue in STZ Type I diabetes model; format: in vivo, Swiss Webster mice
Experimental: as §1, §2, §3, §4
Paw skin tissue was evaluated for IENF density in some cases.
as §6

[10] = test system: db/db (BKS.Cg-Dock7^m+/+Lepr^db/J) mice; assay: MNCV in Type II diabetes model; format: in vivo; conditions: after 17-22 weeks of treatment
Source text: (§7) Type II diabetes was modeled by db/db (BKS.Cg-Dock7^m+/+Lepr^db/J) mice. These mice were maintained in a manner similar to that set forth in Example 1.

[11] = test system: db/db (BKS.Cg-Dock7^m+/+Lepr^db/J) mice; assay: Tactile allodynia in Type II diabetes model; format: in vivo; conditions: after 17-22 weeks of treatment
Source text: as §7

[12] = test system: db/db (BKS.Cg-Dock7^m+/+Lepr^db/J) mice; assay: Thermal hypoalgesia in Type II diabetes model; format: in vivo; conditions: after 17-22 weeks of treatment
Source text: as §7

[13] = Part B (treatment after 7-8 weeks of diabetes)
[14] = Part A (treatment from onset of diabetes), end of study period
[15] = Part A (treatment from onset), measured 24 hours after the last treatment
[16] = Part A (treatment from onset), distal regions of small sensory fibers
[17] = Part A (treatment from onset), more proximal regions

Row | Compound | paw tactile allodynia (diabetic mice [1]; [13]) | paw thermal hypoalgesia (diabetic mice [2]; [13]) | loss of corneal nerve density in Bowman's layer (diabetic mice [3]; [13]) | loss of corneal nerve density in the stroma (diabetic mice [3]; [13]) | MNCV slowing (diabetic mice [4]; [14]) | paw tactile allodynia (diabetic mice [1]; [15]) | paw thermal hypoalgesia (diabetic mice [2]; Part A (treatment from onset)) | loss of corneal nerve density in Bowman's layer (diabetic mice [3]; [16]) | loss of corneal nerve density in the stroma (diabetic mice [3]; [17]) | reduction of nerve density in the sub-epidermal nerve plexus (diabetic mice [5]; Part A (treatment from onset)) | Barnes maze long-term retention (diabetic mice [7]) | Barnes maze other parameters (initial acquisition, reinforced learning, short-term retention) (diabetic mice [7]) | reduction of IENF density in isolated tissue (diabetic mice [9]; Part A (treatment from onset)) | further results
1 | O=C(NCc1nc2ccccn2c1NCC1CCCO1)Oc1ccccc1 (centres unmarked) [NSI-182] | did not | did not | protective | no protective effect | – | – | – | – | – | – | – | – | – | –
2 | O=C(COc1ccccc1)NCc1nc2ccccn2c1NCC1CCCO1 (centres unmarked) [NSI-183] | did not | did not | protective | no protective effect | – | – | – | – | – | – | – | – | – | –
3 | CCN(CCNC(=O)c1cccnc1NCCC(C)C)Cc1cccnc1 [NSI-190] | – | – | – | – | mild attenuation of MNCV slowing | attenuated tactile allodynia | prevented paw thermal hypoalgesia | no protective effect | attenuated this loss | attenuated | improved long-term retention | without altering the other parameters | – | object recognition: impaired short-term memory (diabetic mice [6]): prevented this memory loss
4 | insulin [reference compound] | – | – | – | – | prevented | attenuated | prevents this | prevented | prevented | prevented | – | – | prevented | hyperglycemia (diabetic mice [8]): reduced hyperglycemia; weight gain (diabetic mice [8]): partially restored weight gain; HbA1c levels (diabetic mice [8]; terminal): reduced HbA1c levels; object recognition: impaired short-term memory (diabetic mice [6]): not prevented; Barnes maze impairments (initial acquisition and long-term retention) (diabetic mice [7]; Part A, insulin pellet): prevented all of this
5 | C=CCNC(=O)c1cccnc1NCc1ccccc1OC [NSI-150] | did not | did not | – | no protective effect | – | – | – | – | – | – | – | – | – | –
6 | NC(=O)C1CCCN1C(=O)c1cccnc1NCC1CCCCC1 (centres unmarked) [NSI-158] | – | – | – | – | mild attenuation of MNCV slowing | attenuated tactile allodynia | prevented paw thermal hypoalgesia | no protective effect | – | attenuated | improved long-term retention | without altering the other parameters | attenuated | –
7 | CC(C)CCNc1ncccc1C(=O)N1CCN(Cc2ccccc2)CC1 [NSI-189] | partially reversed paw tactile allodynia | prevented progression of paw thermal hypoalgesia | protective | protective | mild attenuation of MNCV slowing | attenuated tactile allodynia | prevented paw thermal hypoalgesia | attenuated the loss | attenuated this loss | attenuated | improved long-term retention | without altering the other parameters | attenuated | MNCV slowing (diabetic mice [4]; [13]): partially reversed MNCV slowing; reduction of nerve density in the sub-epidermal nerve plexus (diabetic mice [5]; [13]): protective; reduction of IENF density in isolated tissue (diabetic mice [9]; [13]): reversed; progressive development of MNCV slowing [10]: significantly reversed; progressive development of tactile allodynia [11]: significantly reversed; progressive development of thermal hypoalgesia [12]: significantly reversed
